Experiments:
Format in all cases: in vivo
[1] = tested on: galium (catchweed bedstraw, Galium aparine); experiment: Test B pre-/postemergence plant response; settings: Postemergence
Procedure, shortened: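 Greenhouse herbicide screen. Pre- and postemergence (1- to 4-leaf) spray of compound in solvent/surfactant mixture; loam–sand soil for pre, peat/vermiculite medium for post. Visual control rating 0–100 at 13 to 15 days after treatment.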

[2] = tested on: canarygrass (Phalaris minor); experiment: Test B postemergence plant response; settings: Postemergence
Procedure, shortened: (§1)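 Plants grown in peat/vermiculite medium were sprayed postemergence at 2–18 cm height (1- to 4-leaf stage). After 13–15 days in the greenhouse, response was rated visually against untreated controls on a 0–100 scale (0 no effect, 100 complete control).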

[3] = tested on: winter barley (Hordeum vulgare); experiment: Test B postemergence plant response; settings: for Plant response rating, Barley: Postemergence
Procedure, shortened: as §1

[4] = tested on: chickweed (Stellaria media); experiment: Test B postemergence plant response; settings: Postemergence
Procedure, shortened: as §1

[5] = tested on: windgrass (Apera spica-venti); experiment: Test B postemergence plant response; settings: Postemergence
Procedure, shortened: as §1

[6] = tested on: corn (Zea mays); experiment: Test A pre-/postemergence plant response
Procedure, shortened: (§2)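 Pre: directed soil spray on seeded loam/sand blend. Post: same formulation (non-phytotoxic solvent + surfactant) on 2–10 cm plants, 1–2 leaf stage. Greenhouse ~10 d; visual injury score 0–100 vs untreated.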

[7] = tested on: wheat (Triticum aestivum); experiment: Test A pre-/postemergence plant response
Procedure, shortened: as §2

[8] = tested on: morningglory (Ipomoea spp.); experiment: Test A pre-/postemergence plant response
Procedure, shortened: as §2

[9] = tested on: velvetleaf (Abutilon theophrasti); experiment: Test A pre-/postemergence plant response
Procedure, shortened: as §2

[10] = tested on: giant foxtail (Setaria faberii); experiment: Test A pre-/postemergence plant response
Procedure, shortened: as §2

[11] = tested on: large crabgrass (Digitaria sanguinalis); experiment: Test A pre-/postemergence plant response
Procedure, shortened: as §2

[12] = 31 g ai/ha, 0 to 100 scale (0 no effect, 100 complete control)
[13] = 125 g ai/ha, scale 0 to 100 (0 no effect, 100 complete control)
[14] = 250 g ai/ha, scale 0 to 100 (0 no effect, 100 complete control), 13 to 15 days
[15] = Postemergence, 125 g ai/ha, 0 to 100 scale where 0 is no effect and 100 is complete control
[16] = Postemergence, 500 g ai/ha, visual injury, 0 to 100 scale (0 no effect, 100 complete control), approx. ten days
[17] = Preemergence, 125 g ai/ha, 0 to 100 scale, 0 = no effect, 100 = complete control
[18] = Preemergence, 500 g ai/ha, 0 to 100 scale, 0 = no effect, 100 = complete control

`O=C1CCCC(O)=C1C(=O)c1cnc(-c2ccsc2)n(C2CCOCC2)c1=O` [Compound 186] was tested, and the “Plant response rating, Galium” value [1, 12] was 40, the “Plant response rating, Galium” value [1, 13] was 70 and the “Plant response rating, Galium” value [1, 14] was 70. The “Plant response rating, Canarygrass” value [2, 12] was 5, the “Plant response rating, Canarygrass” value [2, 13] was 40 and the “Plant response rating, Canarygrass” value [2, 14] was 40. For the same compound, the “Barley plant response rating (0 to 100 scale)” value ([3]; 62 g ai/ha, postemergence, 0 is no effect, 100 is complete control, 13 to 15 days) was 5, the “Plant response rating, Barley” value [3, 12] was 0 and the “Plant response rating, Barley” value [3, 13] was 5. The “Plant response rating, Barley” value [3, 14] was 5, the “Plant response rating, Chickweed” value [4, 12] was 95 and the “Plant response rating, Chickweed” value [4, 13] was 100. For the same compound, the “Plant response rating, Chickweed” value [4, 14] was 100, the “Plant response rating, Windgrass” value [5, 12] was 10 and the “Plant response rating, Windgrass” value [5, 13] was 50. For the same compound, the “Plant response rating, Windgrass” value [5, 14] was 65, the “Plant response rating, Corn” value [6, 15] was 0 and the “Corn plant response rating” value [6, 16] was 60. For the same compound, the “Plant response rating, Corn” value [6, 17] was 0, the “Plant response rating, Corn” value [6, 18] was 0 and the “Plant response rating, Wheat” value [7, 15] was 0. The “Wheat plant response rating” value [7, 16] was 0, the “Plant response rating, Wheat” value [7, 17] was 0 and the “Plant response rating, Wheat” value [7, 18] was 0. For the same compound, the “Plant response rating, Morningglory” value [8, 15] was 100, the “Morningglory plant response rating” value [8, 16] was 100 and the “Plant response rating, Morningglory” value [8, 17] was 20. The “Plant response rating, Morningglory” value [8, 18] was 90, the “Plant response rating, Velvetleaf” value [9, 15] was 100 and the “Velvetleaf plant response rating” value [9, 16] was 100. The “Plant response rating, Velvetleaf” value [9, 17] was 60, the “Plant response rating, Velvetleaf” value [9, 18] was 100 and the “Plant response rating, Foxtail, Giant” value [10, 15] was 80. For the same compound, the “Foxtail, Giant plant response rating” value [10, 16] was 90, the “Plant response rating, Foxtail, Giant” value [10, 17] was 20 and the “Plant response rating, Foxtail, Giant” value [10, 18] was 60. The “Plant response rating, Crabgrass, Large” value [11, 15] was 90, the “Crabgrass, Large plant response rating” value [11, 16] was 90 and the “Plant response rating, Crabgrass, Large” value [11, 17] was 30. For the same compound, the “Plant response rating, Crabgrass, Large” value [11, 18] was 80.

— US8952024B2, “Herbicidal pyrimidone derivatives” (E I du Pont de Nemours and Company, priority 2009, dated 2015)
